According to patent US12329158B2, “Large-scale methods of uniformly coating packaging surfaces with a volatile antimicrobial to preserve food freshness” (AGROFRESH INC., priority 2013, dated 2025):
Converted amounts (≈) assume the structure as drawn. Like-named read-outs stand apart in the source and are kept apart here.

Columns and labels:
C. albicans = experiment: In vitro volatile assay, yeast infection species (Example 27); format: cell-based; settings: Candida albicans
Method: More specifically, growth inhibition of yeast infection fungal species C. albicans and C. krusei (or I. orientalis) by volatile treatment of Compound 10 was assessed via a volatile assay.
Volatile assay: 6-well (16.5 mL volume per well) microtiter plates are used in an in vitro inhibition assay for Compound 10 (i.e., Compound A). A 7.5-mL volume of half strength PDA is added to each well. After drying, a mycelial plug (5 mm diameter) is aseptically obtained from actively growing cultures of C. albicans and C. krusei (or I. orientalis) and placed at the center of the plate with the mycelial side in contact with the agar. A Whatman #1 filter disk (Cat. No. 1001-325) is placed, in duplicate, on the underside of a polyethylene PCR plate sealing film. […] The acetone/methanol is permitted to evaporate for 5 minutes. The headspace around the inoculum is then sealed inside the well by the film with the adhering disk containing the fungicide and incubated inverted for 5 days at 28° C.

Botrytis cinerea [1] = experiment: Volatilization from treated clamshells onto inoculated agar plates (Example 2); format: cell-based
Method: An in vitro assay was used to evaluate the ability of Compound A to volatilize from a clamshell to control fungal pathogenic infection when applied to the clamshell by various application techniques. Multiple empty 1-lb PET clamshells (ProducePackaging.com, #036QT) were placed inside triplicate air-tight 36 L chamber (Fisher Scientific, Catalogue #08-642-23C) fitted with a bulkhead septum port (Swagelok, SS-401-61, Solon, OH).
Compound A headspace was permitted to equilibrate overnight at 21° C.
After spraying or painting, the clamshell was then permitted to dry for 5 minutes. After coating the clamshells with Compound A using various applications (i.e., sublimation, spraying, or painting), 10-cm Petri plates containing half strength Potato Dextrose Agar were inoculated with 1 μL of 1×10^5 spores/ml Botrytis cinerea spore suspension. The inoculated petri plates were then sealed with a breathable film (AeraSeal; P/N: B-100, Excel Scientific, Victorville, CA), and placed inside the treated clamshell.
(Series I). After incubation, plates were removed and cultures were evaluated for percent growth relative to a control based on measurement of fungal colony diameter (mm).
Meanwhile, freshly prepared inoculated plates were placed inside the clamshell for an additional three (3) days of incubation (Series 2). This process, where freshly prepared inoculated plates were placed inside the clamshell, was repeated twice more, to produce a 12 full day evaluation of 4 series of 3 days each.

Botrytis cinerea [2] = experiment: Dose response, vapor-coated clamshells; strawberries (Example 3); format: in vivo; settings: Inoculated Fruit, sublimation
Method: Five milligrams of Compound A was dissolved in 1 ml of ethanol prior to being uniformly administered to the interior of the clamshell by painting or spraying, and then dried for 5 minutes. After coating the clamshells with Compound A using various application techniques (i.e., sublimation, spraying, or painting), eight ethanol-washed strawberries were placed in the clamshell with stem end facing downwards. Each strawberry fruit was wounded using a T15 screwdriver tip to a uniform depth of eight mm (8 mm). […] Uninoculated strawberries were removed from their commercial package, and directly transferred into treated clamshells without any washing or inoculation steps.
Treated clamshells lids were closed, and then placed at 1° C. for an initial time period of 5 days. Clamshells were then removed from low temperature, and held for a second time period of 6 days at room temperature where the point of inoculation on the strawberry fruits was assessed for indication of disease incidence reported as a percentage (%). Severity of disease incidence was also reported.
This in vivo assay was used to evaluate the ability of vaporized Compound A to volatilize from a clamshell in order to control or inhibit pathogenic microorganisms. This experiment was conducted exactly as described in Example 1, with a few exceptions. After equilibrating the clamshell overnight at 21° C., Compound A was administered to the clamshell as a vapor only. In addition, Compound A was vapor-coated onto the surface of the clamshell at a final treatment rate of 3.16 mg/clamshell, 1 mg/clamshell, or 0.316 mg/clamshell. After vapor-coating application, Compound A headspace was permitted to equilibrate overnight at 21° C. Strawberries were inoculated with Botrytis cinerea, placed within the clamshells for an initial time period, and assessed for disease incidence and severity over a second time period as described in Example 1.

Diaporthe citrii = experiment: Volatile MIC assay (Example 11); format: cell-based; settings: D. citrii
Method: (§1) A 3-mL volume of full-strength Potato Dextrose Agar (PDA) is added to each well. After cooling, 1 μL of 1×10^5 spores per mL of Botrytis cinerea, Penicillium expansum, Alternaria alternata, Glomerella cingulata, Penicillium digitatum, Monilinia fruticola, Aspergillus brasiliensis, Colletotrichum acutatum, Fusarium sambucinum, Phytophthora capsici, Geotrichum candidum, Aspergillus niger, Diplodia gossypina or Diaporthe citrii suspension is spotted onto the center of the agar. A Whatman #1 filter disk (Cat. No. 1001-0155) is placed, in duplicate, on the underside of a polyethylene PCR plate sealing film. […] The headspace around the inoculum is then sealed inside the well by the film with the adhering disk containing the fungicide by inverting the plates over the treated disks and sealing to prevent any of the chemical from flaking from the disk and falling onto the inoculated agar. After 3 days of storage at 23° C., cultures are evaluated for percent growth relative to control.

Monilinia fruticola = experiment: Volatile MIC assay (Example 11); format: cell-based; settings: M. fruticola
Method: as §1

Compound `OB1OCc2cc(F)ccc21` [Compound A, 5-fluoro-1,3-dihydro-1-hydroxy-2,1-benzoxaborole] has an inhibition at 0.017 µg/mL (C. albicans; 0.017 mg/L, read-out: Growth Inhibition (%) C. albicans) of 2%, an inhibition at 0.035 µg/mL (C. albicans; 0.035 mg/L, read-out: Growth Inhibition (%) C. albicans) of 1.6% and an inhibition at 0.07 µg/mL (C. albicans; 0.07 mg/L, read-out: Growth Inhibition (%) C. albicans) of 7.9%. The inhibition at 0.1 µg/mL (C. albicans; 0.1 mg/L, read-out: Growth Inhibition (%) C. albicans) was 11.9%, the inhibition at 0.3 µg/mL (C. albicans; 0.3 mg/L, read-out: Growth Inhibition (%) C. albicans) was 18.5% and the inhibition at 0.6 µg/mL (C. albicans; 0.6 mg/L, read-out: Growth Inhibition (%) C. albicans) was 22.2%. For the same compound, the inhibition at […] (C. albicans; 1.1 mg/L, read-out: Growth Inhibition (%) C. albicans) was 40.2%, the inhibition at […] (C. albicans; 2.2 mg/L, read-out: Growth Inhibition (%) C. albicans) was 100% and the inhibition at […] (C. albicans; 4.5 mg/L, read-out: Growth Inhibition (%) C. albicans) was 100%. The inhibition at […] (C. albicans; 8.9 mg/L, read-out: Growth Inhibition (%) C. albicans) was 100%, the MIC (C. albicans; 120 h, 100% control, 5 days at 28 C, read-out: minimum inhibitory concentration (MIC) for C. albicans) was 2.2 µg/mL (≈ 14.5 µM) and the “Mycelial Growth Inhibition (%)” value (Botrytis cinerea [1]; Paint, 0.2 mg/clamshell, Series 1 (0 to 3 days)) was 3.4%. The “Mycelial Growth Inhibition (%)” value (Botrytis cinerea [1]; Paint, 1 mg/clamshell, Series 1 (0 to 3 days)) was 100.0%, the “Mycelial Growth Inhibition (%)” value (Botrytis cinerea [1]; Paint, 1 mg/clamshell, Series 2 (3 to 6 days)) was 18.8% and the “Mycelial Growth Inhibition (%)” value (Botrytis cinerea [1]; Paint, 5 mg/clamshell, Series 1 (0 to 3 days)) was 100.0%. The “Mycelial Growth Inhibition (%)” value (Botrytis cinerea [1]; Paint, 5 mg/clamshell, Series 2 (3 to 6 days)) was 100.0%, the “Mycelial Growth Inhibition (%)” value (Botrytis cinerea [1]; Paint, 5 mg/clamshell, Series 3 (6 to 9 days)) was 57.5% and the “Mycelial Growth Inhibition (%)” value (Botrytis cinerea [1]; Paint, 5 mg/clamshell, Series 4 (9 to 12 days)) was 44.7%. The “Mycelial Growth Inhibition (%)” value (Botrytis cinerea [1]; Spray, 0.2 mg/clamshell, Series 1 (0 to 3 days)) was 81.2%, the “Mycelial Growth Inhibition (%)” value (Botrytis cinerea [1]; Spray, 1 mg/clamshell, Series 1 (0 to 3 days)) was 100.0% and the “Mycelial Growth Inhibition (%)” value (Botrytis cinerea [1]; Spray, 1 mg/clamshell, Series 2 (3 to 6 days)) was 18.6%. For the same compound, the “Mycelial Growth Inhibition (%)” value (Botrytis cinerea [1]; Spray, 1 mg/clamshell, Series 3 (6 to 9 days)) was 0.0%, the “Mycelial Growth Inhibition (%)” value (Botrytis cinerea [1]; Spray, 5 mg/clamshell, Series 1 (0 to 3 days)) was 100.0% and the “Mycelial Growth Inhibition (%)” value (Botrytis cinerea [1]; Spray, 5 mg/clamshell, Series 2 (3 to 6 days)) was 100.0%. The “Mycelial Growth Inhibition (%)” value (Botrytis cinerea [1]; Spray, 5 mg/clamshell, Series 3 (6 to 9 days)) was 61.2%, the “Mycelial Growth Inhibition (%)” value (Botrytis cinerea [1]; Spray, 5 mg/clamshell, Series 4 (9 to 12 days)) was 64.9% and the “Mycelial Growth Inhibition (%)” value (Botrytis cinerea [1]; Sublimation, 0.2 mg/clamshell, Series 1 (0 to 3 days)) was 90.9%. For the same compound, the “Mycelial Growth Inhibition (%)” value (Botrytis cinerea [1]; Sublimation, 0.2 mg/clamshell, Series 3 (6 to 9 days)) was 0.0%, the “Mycelial Growth Inhibition (%)” value (Botrytis cinerea [1]; Sublimation, 1 mg/clamshell, Series 1 (0 to 3 days)) was 90.1% and the “Mycelial Growth Inhibition (%)” value (Botrytis cinerea [1]; Sublimation, 5 mg/clamshell, Series 1 (0 to 3 days)) was 100.0%. For the same compound, the “Mycelial Growth Inhibition (%)” value (Botrytis cinerea [1]; Sublimation, 5 mg/clamshell, Series 2 (3 to 6 days)) was 100.0%, the “Mycelial Growth Inhibition (%)” value (Botrytis cinerea [1]; Sublimation, 5 mg/clamshell, Series 3 (6 to 9 days)) was 83.1% and the “Mycelial Growth Inhibition (%)” value (Botrytis cinerea [1]; Sublimation, 5 mg/clamshell, Series 4 (9 to 12 days)) was 84.4%. For the same compound, the “Gray Mold Severity (0-4)” value (Botrytis cinerea [2]; 0.316 mg per clamshell, Day 1) was 0.4, the “Gray Mold Severity (0-4)” value (Botrytis cinerea [2]; 0.316 mg per clamshell, Day 2) was 1.3 and the “Gray Mold Severity (0-4)” value (Botrytis cinerea [2]; 0.316 mg per clamshell, Day 3) was 2.2. For the same compound, the “Gray Mold Severity (0-4)” value (Botrytis cinerea [2]; 0.316 mg per clamshell, Day 4) was 3.4, the “Gray Mold Severity (0-4)” value (Botrytis cinerea [2]; 0.316 mg per clamshell, Day 5) was 3.8 and the “Gray Mold Severity (0-4)” value (Botrytis cinerea [2]; 0.316 mg per clamshell, Day 6) was 3.9. The “Gray Mold Severity (0-4)” value (Botrytis cinerea [2]; 1.00 mg per clamshell, Day 1) was 0.0, the “Gray Mold Severity (0-4)” value (Botrytis cinerea [2]; 1.00 mg per clamshell, Day 2) was 0.0 and the “Gray Mold Severity (0-4)” value (Botrytis cinerea [2]; 1.00 mg per clamshell, Day 3) was 0.0. The “Gray Mold Severity (0-4)” value (Botrytis cinerea [2]; 1.00 mg per clamshell, Day 4) was 0.1, the “Gray Mold Severity (0-4)” value (Botrytis cinerea [2]; 1.00 mg per clamshell, Day 5) was 0.4 and the “Gray Mold Severity (0-4)” value (Botrytis cinerea [2]; 1.00 mg per clamshell, Day 6) was 0.7. For the same compound, the “Gray Mold Severity (0-4)” value (Botrytis cinerea [2]; 3.16 mg per clamshell, Day 1) was 0.0, the “Gray Mold Severity (0-4)” value (Botrytis cinerea [2]; 3.16 mg per clamshell, Day 2) was 0.0 and the “Gray Mold Severity (0-4)” value (Botrytis cinerea [2]; 3.16 mg per clamshell, Day 3) was 0.0. The “Gray Mold Severity (0-4)” value (Botrytis cinerea [2]; 3.16 mg per clamshell, Day 4) was 0.0, the “Gray Mold Severity (0-4)” value (Botrytis cinerea [2]; 3.16 mg per clamshell, Day 5) was 0.1 and the “Gray Mold Severity (0-4)” value (Botrytis cinerea [2]; 3.16 mg per clamshell, Day 6) was 0.2. For the same compound, the MIC (Diaporthe citrii) was 2.2 µg/mL (≈ 14.5 µM) and the MIC (Monilinia fruticola) was 2.2 µg/mL (≈ 14.5 µM).
